Target: T1, Histone-arginine methyltransferase CARM1 (Mus musculus, UniProt Q9WVG6)
T1 sequence (Q9WVG6 whole entry): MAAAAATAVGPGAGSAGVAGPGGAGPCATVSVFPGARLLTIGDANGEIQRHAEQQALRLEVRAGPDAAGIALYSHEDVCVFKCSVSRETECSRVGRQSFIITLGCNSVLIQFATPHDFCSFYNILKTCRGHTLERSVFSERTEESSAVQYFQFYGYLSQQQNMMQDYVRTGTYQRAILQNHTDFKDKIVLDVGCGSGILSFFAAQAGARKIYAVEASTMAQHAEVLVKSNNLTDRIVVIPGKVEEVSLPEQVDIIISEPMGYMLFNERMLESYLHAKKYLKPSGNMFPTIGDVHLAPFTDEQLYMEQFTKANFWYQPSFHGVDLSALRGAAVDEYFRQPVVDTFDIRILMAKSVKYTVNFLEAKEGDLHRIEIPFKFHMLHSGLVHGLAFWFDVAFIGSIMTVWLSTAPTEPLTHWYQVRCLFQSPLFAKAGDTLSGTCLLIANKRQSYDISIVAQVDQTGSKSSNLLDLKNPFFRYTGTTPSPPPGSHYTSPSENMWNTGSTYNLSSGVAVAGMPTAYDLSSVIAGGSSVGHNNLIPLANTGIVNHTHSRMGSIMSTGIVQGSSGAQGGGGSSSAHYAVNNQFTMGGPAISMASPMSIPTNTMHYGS
Assay: Inhibition of CARM-1 Enzymatic Activity
Conditions: pH 9; 22 °C
Experimental: Histone H3 is used as the substrate for CARM-1 enzyme, and the methylation is monitored using tritiated S-Adenosyl-Methionine (SAM) as a methyl donor. The enzyme mixture containing test compound is left to pre-incubate for 10 minutes, followed by the addition of Histone H3/[3H] SAM mixture. After incubation, the mixture is spotted onto P30 Filtermat paper. The incorporated radioactivity is read using a Wallac Microbeta counter. The data is analyzed to generate IC50 values.

| IC50 [µM] | Structure (SMILES) |
| --- | --- |
| 0.08 | C[C@H](N)C(=O)NCc1cccc(-n2nc(C(F)(F)F)cc2C(=O)NCc2ccccc2)c1 |
| 3.35 | C[C@H](N)C(=O)NCc1cc(-n2nc(C(F)(F)F)cc2C(=O)NCc2ccccn2)cs1 [1-(5-{[(2S)-2-aminopropanamido]methyl}thiophen-3-yl)-N-(pyridin-2-ylmethyl)-3-(trifluoromethyl)-1H-pyrazole-5-carboxamide] |
| > 10 | COc1ccccc1CNC(=O)c1cc(C(F)(F)F)nn1-c1cccc2c1CN(C(=O)[C@H](C)N)C2 [1-{2-[(2S)-2-aminopropanoyl]-2,3-dihydro-1H-isoindol-4-yl}-N-[(2-methoxyphenyl)methyl]-3-(trifluoromethyl)-1H-pyrazole-5-carboxamide] |
